# Like-named read-outs stand apart in the source and are kept apart here.
# Assays:
# MV4-11 cells = assay: Inhibition of proliferation of MV4-11 cells (CCK-8); type: cell-based; conditions: Homo sapiens, 72 h, mean±standard deviation of two independent tests
# Description: (§1) 12000 g of compounds were centrifuged for 5 min, DMSO was added to make a 10^−2M stock solution, vortexed uniformly and sonicated for 10 min for standby application, and stored at −40° C. The compounds were diluted from the stock solution with saline to 10 times the concentration to be tested (concentration of DMSO in the system being no more than 0.5%) during the test.
# (§2) The inhibitory effect of the compounds on the proliferation of MV4-11 cells was detected using a CCK-8 cell counting kit (Dojindo). The specific steps are as follows: the MV4-11 cells in logarithmic growth phase were seeded into a 96-well culture plate at a suitable density in 90 μL/well, cultured overnight, compounds at different concentrations were then added and acted on cells for 72 hr, and the solvent control group (negative control) was set up. The effect of the compounds on cell proliferation was detected using a CCK-8 cell counting kit (Dojindo) after the compounds had acted on the cells for 72 h. 10 μL of CCK-8 reagent was added to each well, same was placed in an incubator at 37° C. for 2-4 hours, and the reading from the full-wavelength microwell plate ELIASA SpectraMax 190 was performed with a wavelength of 450 nm.
# (§3) IC50 value was calculated using a software included with ELIASA by the four-parameter regression.
# (§4) IC50 for the inhibition of the compounds on each stain of cells was derived from two independent repeated tests, and the results are shown as the mean±standard deviation.
# Molm-13 cells = assay: Inhibition of proliferation of Molm-13 cells (CCK-8); type: cell-based; conditions: Homo sapiens, 72 h, mean±standard deviation of two independent tests
# Description: [Worded in the source for another cell line; this cell line is reported under the same test.] as §1, §2, §3, §4
# [1] = In vivo pharmacokinetic and bioavailability experiments of rats; design: species or system SD rats; conditions: for pharmacokinetic parameter, overall judgement: hydrochlorides, in words; for bioavailability: po, 25 mg/kg, read-out: F (oral bioavailability)
# Description: Pharmacokinetic and bioavailability experiments of rats. SD rats were administered orally (25 mg/kg) and intravenously (2.5 to 5 mg/kg) at a single dose. Animal blood samples were taken at appropriate time points after administration, heparin was added as anticoagulant, and same were centrifuged at 8000 rpm/min for 6 minutes, the supernatant was then taken and stored at −20° C. for HPLC-MS analysis. The proteins in blood samples were precipitated with acetonitrile at 12000 rpm for 10 min, and the supernatant was used for HPCL-MS analysis. Data were fit using DAS2.0 to obtain compartmental model and non-compartmental model parameters, respectively. The oral bioavailability of each compound was calculated according to AUC data.
# MDA-MB-231 cells = assay: Immunofluorescence, EMT marker proteins in TGF-β1-induced MDA-MB-231 cells; type: cell-based; conditions: TGF-β1 (10 ng/ml); for expression of E-cadherin / expression of N-cadherin: 96 hours; for phosphorylation level of AXL: FIGS. 3 and 4
# Description: Immunofluorescence experiments were used to determine the effect of the compounds on EMT marker proteins.
# MDA-MB-231 cells were seeded onto a glass slide pre-placed in a 6-well plate, and then treated with compounds to be tested at different concentrations (0.04, 0.2, 1.5 μM) with or without TGF-β1 (10 ng/ml) for 96 hours. At room temperature, the cells were fixed with a 4% formaldehyde solution for 15 minutes, treated with 0.5% Triton X-100 for 10 minutes, and blocked with PBS solution containing 3% goat serum albumin for one hour, and then incubated with antibodies against E-cadherin and N-cadherin (1:1000; Abeam, ab10983) for 1.5 hours at room temperature. The cells were then washed with PBST and co-incubated with Alexa Fluor 555 labeled rabbit secondary antibody (4413; CST, USA) or Alexa Fluor 488 labeled murine secondary antibody (4408; CST, USA) for one hour at room temperature in the dark. Cell nuclei were stained with ProLong Gold antifade reagent (P36931; Invitrogen, USA) for 5 minutes, glass slides were covered with pieces of glass, and samples were observed using a laser scanning confocal microscope (Zeiss 710; Germany).
# [2] = Sprague-Dawley, rat, plasma, SD rats, Po, 25 mg/kg single dose
# [3] = Sprague-Dawley, rat, plasma, SD rats, Po, 25 mg/kg single dose, read-out: Cmax
# [4] = Sprague-Dawley, rat, plasma, SD rats, iv, 5 mg/kg single dose
# [5] = Sprague-Dawley, rat, plasma, SD rats, iv, 5 mg/kg single dose, read-out: Cmax
# [6] = SD rats, Po, 25 mg/kg single dose
# [7] = SD rats, iv, 2.5 mg/kg single dose
Structure (SMILES),IC50 (MV4-11 cells),IC50 (Molm-13 cells),"pharmacokinetic parameter, overall judgement ([1]; SD rats)","bioavailability ([1]; Sprague-Dawley, rat, plasma)","AUC(0-inf) [1, 2]","AUC(0-t) [1, 2]","half-life [1, 2]","Cmax [1, 3]","AUC(0-inf) [1, 4]","AUC(0-t) [1, 4]","clearance [1, 4]","half-life [1, 4]","Cmax [1, 5]","AUC(0-∞) [1, 6]","Cmax [1, 6]","T1/2 [1, 6]",expression of E-cadherin (MDA-MB-231 cells),expression of N-cadherin (MDA-MB-231 cells),phosphorylation level of AXL (MDA-MB-231 cells),other results
"CCc1ccc2c(c1)c(=O)c(C(=O)Nc1ccc(Oc3ncnc4[nH]cc(-c5ccccc5)c34)c(F)c1)c(C)n2C [TL4800075, 6-ethyl-N-(3-fluoro-4-((5-phenyl-7H-pyrrolo[2,3-d]pyrimidin-4-yl)oxy)phenyl)-1,2-dimethyl-4-oxo-1,4-dihydroquinoline-3-carboxamide]",–,–,–,1.23%,–,371 ng·h/mL,–,–,–,–,–,–,–,505.71 ng·h/mL,121.74 ng/mL,3.72 h,significantly upregulate,down-regulate,inhibit the phosphorylation level of AXL in a dose-dependent manner,"AUC(0-∞) [1, 7]: 3029.64 ng·h/mL; CL [1, 7]: 13.8 mL/min/kg; Cmax [1, 7]: 2910.13 ng/mL; T1/2 [1, 7]: 0.87 h; AUC(0-t) ([1]; Sprague-Dawley, rat, plasma, SD rats, iv, 2.5 mg/kg single dose): 3020 ng·h/mL"
"CCc1ccc2c(c1)c(=O)c(C(=O)Nc1ccc(Oc3ncnc4cc(OC)c(OC)cc34)c(F)c1)c(C)n2C [TL4800191, N-(4-(6,7-dimethoxyquinazolin-4-yloxy)-3-fluorophenyl)-6-ethyl-1,2-dimethyl-4-oxo-1,4-dihydroquinoline-3-carboxamide]",194 ± 104 nM,102 ± 10.9 nM,–,–,–,31300 ng·h/mL,–,–,42300 ng·h/mL,30500 ng·h/mL,1.67 mL/min/kg,25.2 h,1170 ng/mL,31505 ng·h/mL,1967 ng/mL,10.2 h,significantly upregulate,down-regulate,inhibit the phosphorylation level of AXL in a dose-dependent manner,"F (oral bioavailability) ([1]; SD rats, Po 25 mg/kg vs iv 2.5 to 5 mg/kg, calculated according to AUC data): 14.9%; CL [1, 6]: 15 mL/min/kg"
"COc1cc2ncnc(Oc3ccc(NC(=O)c4cn5c6c(c(N7CCC(O)CC7)c(F)cc6c4=O)CCC5C)cc3F)c2cc1OC (centres unmarked) [TL4830031, N-(4-((6,7-dimethoxyquinazolin-4-yl)oxy)-3-fluorophenyl)-9-fluoro-8-(4-hydroxypiperidin-1-yl)-5-methyl-1-oxo-1,5,6,7-tetrahydropyrido[3,2,1-ij]quinoline-2-carboxamide]",> 500 nM,239 ± 21.9 nM,–,12.1%,25900 ng·h/mL,24400 ng·h/mL,5.68 h,2390 ng/mL,20700 ng·h/mL,20300 ng·h/mL,2 mL/min/kg,4.26 h,4360 ng/mL,–,–,–,–,–,–,–

# Now from value to compound, other results behind:
IC50 (MV4-11 cells),IC50 (Molm-13 cells),"pharmacokinetic parameter, overall judgement ([1]; SD rats)","bioavailability ([1]; Sprague-Dawley, rat, plasma)","AUC(0-inf) [1, 2]","AUC(0-t) [1, 2]","half-life [1, 2]","Cmax [1, 3]","AUC(0-inf) [1, 4]","AUC(0-t) [1, 4]","clearance [1, 4]","half-life [1, 4]","Cmax [1, 5]","AUC(0-∞) [1, 6]","Cmax [1, 6]","T1/2 [1, 6]",Structure (SMILES),expression of E-cadherin (MDA-MB-231 cells),expression of N-cadherin (MDA-MB-231 cells),phosphorylation level of AXL (MDA-MB-231 cells),other results
57.3 ± 10.4 nM,50.2 ± 9.9 nM,appropriate pharmacokinetic parameter,44.3%,25600 ng·h/mL,25100 ng·h/mL,4.59 h,4630 ng/mL,11600 ng·h/mL,11300 ng·h/mL,7.5 mL/min/kg,5.82 h,16800 ng/mL,–,–,–,"CCc1ccc2c(c1)c(=O)c(C(=O)Nc1ccc(Oc3ncnc4cc(OCCN(C)C)c(OC)cc34)c(F)c1)c(C)n2C [GDL5000128, N-(4-(7-(2-(dimethylamino)ethoxy)-6-methoxyquinazolin-4-yloxy)-3-fluorophenyl)-6-ethyl-1,2-dimethyl-4-oxo-1,4-dihydroquinoline-3-carboxamide]",–,–,–,–
51.7 ± 17.6 nM,3.5 ± 3.2 nM,appropriate pharmacokinetic parameter,23.5%,118000 ng·h/mL,51500 ng·h/mL,26.7 h,3080 ng/mL,47700 ng·h/mL,43800 ng·h/mL,1.83 mL/min/kg,6.7 h,6480 ng/mL,–,–,–,"CCc1ccc2c(c1)c(=O)c(C(=O)Nc1ccc(Oc3ncnc4cc(OCCCN5CCOCC5)c(OC)cc34)c(F)c1)c(C)n2C [GDL5000123, 6-ethyl-N-(3-fluoro-4-((6-methoxy-7-(3-morpholinopropoxy)quinazolin-4-yl)oxy)phenyl)-1,2-dimethyl-4-oxo-1,4-dihydroquinoline-3-carboxamide]",–,–,–,–
< 2 nM,3.9 ± 2.9 nM,appropriate pharmacokinetic parameter,27.5%,31300 ng·h/mL,11300 ng·h/mL,34.8 h,656 ng/mL,8530 ng·h/mL,8220 ng·h/mL,9.83 mL/min/kg,5.72 h,3560 ng/mL,–,–,–,"CCc1ccc2c(c1)c(=O)c(C(=O)Nc1ccc(Oc3ncnc4cc(OCCCN5CCN(C)CC5)c(OC)cc34)c(F)c1)c(C)n2C [GDL5000138, 6-ethyl-N-(3-fluoro-4-(6-methoxy-7-(3-(4-methylpiperazin-1-yl)propoxy)quinazolin-4-yloxy)phenyl)-1,2-dimethyl-4-oxo-1,4-dihydroquinoline-3-carboxamide]",–,–,–,–

# Source: patent US10683278B2 (JINAN UNIVERSITY, priority 2015, dated 2020)
